Laboratory results from PubChem BioAssay (NCI).
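Results reflect a 48-hour exposure of cells in 96-well plates to compound at five concentrations. GI50 marks 50% less growth. At the TGI there is no net growth.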

Key:
Assay in all cases: NCI tumour cell line growth inhibition, 48 h
786-0 renal = system: 786-0 renal
A498 renal = system: A498 renal
A549 NSCLC = system: A549 NSCLC
ACHN renal = system: ACHN renal
CAKI-1 renal = system: CAKI-1 renal
CCRF-CEM leukemia = system: CCRF-CEM leukemia
COLO 205 colon = system: COLO 205 colon
DLD-1 colon = system: DLD-1 colon
DMS 273 small cell lung = system: DMS 273 small cell lung
EKVX NSCLC = system: EKVX NSCLC
HCC-2998 colon = system: HCC-2998 colon
HCT-116 colon = system: HCT-116 colon
HCT-15 colon = system: HCT-15 colon
HL-60(TB) leukemia = system: HL-60(TB) leukemia
HOP-18 NSCLC = system: HOP-18 NSCLC
HOP-62 NSCLC = system: HOP-62 NSCLC
HT29 colon = system: HT29 colon
IGROV1 ovarian = system: IGROV1 ovarian
K-562 leukemia = system: K-562 leukemia
KM12 colon = system: KM12 colon
KM20L2 colon = system: KM20L2 colon
LXFL 529 NSCLC = system: LXFL 529 NSCLC
M14 melanoma = system: M14 melanoma
M19-MEL melanoma = system: M19-MEL melanoma
MALME-3M melanoma = system: MALME-3M melanoma
MOLT-4 leukemia = system: MOLT-4 leukemia
NCI-H226 lung = system: NCI-H226 lung
NCI-H23 lung = system: NCI-H23 lung
NCI-H460 lung = system: NCI-H460 lung
NCI-H522 lung = system: NCI-H522 lung
OVCAR-3 ovarian = system: OVCAR-3 ovarian
OVCAR-4 ovarian = system: OVCAR-4 ovarian
OVCAR-5 ovarian = system: OVCAR-5 ovarian
OVCAR-8 ovarian = system: OVCAR-8 ovarian
RPMI-8226 leukemia = system: RPMI-8226 leukemia
RXF-631 renal = system: RXF-631 renal
SF-295 CNS = system: SF-295 CNS
SF-539 CNS = system: SF-539 CNS
SK-MEL-2 melanoma = system: SK-MEL-2 melanoma
SK-MEL-5 melanoma = system: SK-MEL-5 melanoma
SK-OV-3 ovarian = system: SK-OV-3 ovarian
SN12C renal = system: SN12C renal
SNB-19 CNS = system: SNB-19 CNS
SNB-75 CNS = system: SNB-75 CNS
SNB-78 CNS = system: SNB-78 CNS
SR leukemia = system: SR leukemia
SW-620 colon = system: SW-620 colon
TK-10 renal = system: TK-10 renal
U251 CNS = system: U251 CNS
UACC-257 melanoma = system: UACC-257 melanoma
UACC-62 melanoma = system: UACC-62 melanoma
UO-31 renal = system: UO-31 renal
XF 498 CNS = system: XF 498 CNS
DMS 114 small cell lung = system: DMS 114 small cell lung
LOX IMVI melanoma = system: LOX IMVI melanoma
RXF 393 renal = system: RXF 393 renal
SF-268 CNS = system: SF-268 CNS
SK-MEL-28 melanoma = system: SK-MEL-28 melanoma

## O=C1c2ccccc2C(=O)N1C/C=N/NS(=O)(=O)c1ccc2ccccc2c1
786-0 renal
  TGI: > 100 µM
A498 renal
  TGI: > 100 µM
A549 NSCLC
  TGI: > 100 µM
ACHN renal
  TGI: > 100 µM
CAKI-1 renal
  TGI: > 100 µM
CCRF-CEM leukemia
  TGI: > 100 µM
COLO 205 colon
  TGI: > 100 µM
DLD-1 colon
  TGI: > 100 µM
DMS 273 small cell lung
  TGI: > 100 µM
EKVX NSCLC
  TGI: > 100 µM
HCC-2998 colon
  TGI: > 100 µM
HCT-116 colon
  TGI: > 100 µM
HCT-15 colon
  TGI: > 100 µM
HL-60(TB) leukemia
  TGI: > 100 µM
HOP-18 NSCLC
  TGI: > 100 µM
HOP-62 NSCLC
  TGI: > 100 µM
HT29 colon
  TGI: > 100 µM
IGROV1 ovarian
  TGI: > 100 µM
K-562 leukemia
  TGI: > 100 µM
KM12 colon
  TGI: > 100 µM
KM20L2 colon
  TGI: > 100 µM
LXFL 529 NSCLC
  TGI: > 100 µM
M14 melanoma
  TGI: > 100 µM
M19-MEL melanoma
  TGI: > 100 µM
MALME-3M melanoma
  TGI: > 100 µM
MOLT-4 leukemia
  TGI: > 100 µM
NCI-H226 lung
  TGI: > 100 µM
NCI-H23 lung
  TGI: > 100 µM
NCI-H460 lung
  TGI: > 100 µM
NCI-H522 lung
  TGI: > 100 µM
OVCAR-3 ovarian
  TGI: > 100 µM
OVCAR-4 ovarian
  TGI: > 100 µM
OVCAR-5 ovarian
  TGI: > 100 µM
OVCAR-8 ovarian
  TGI: > 100 µM
RPMI-8226 leukemia
  TGI: > 100 µM
RXF-631 renal
  TGI: > 100 µM
SF-295 CNS
  TGI: > 100 µM
SF-539 CNS
  TGI: > 100 µM
SK-MEL-2 melanoma
  TGI: > 100 µM
SK-MEL-5 melanoma
  TGI: > 100 µM
SK-OV-3 ovarian
  TGI: > 100 µM
SN12C renal
  TGI: > 100 µM
SNB-19 CNS
  TGI: > 100 µM
SNB-75 CNS
  TGI: > 100 µM
SNB-78 CNS
  TGI: > 100 µM
SR leukemia
  TGI: > 100 µM
SW-620 colon
  TGI: > 100 µM
TK-10 renal
  TGI: > 100 µM
U251 CNS
  TGI: > 100 µM
UACC-257 melanoma
  TGI: > 100 µM
UACC-62 melanoma
  TGI: > 100 µM
UO-31 renal
  TGI: > 100 µM
XF 498 CNS
  TGI: > 100 µM

## CC(C)(C)N=Cc1ccccc1[O-].CC(C)(C)N=Cc1ccccc1[O-].[Co+2]
786-0 renal
  GI50: 72.4 µM
  TGI: > 100 µM
A549 NSCLC
  GI50: > 100 µM
  TGI: > 100 µM
CAKI-1 renal
  GI50: 59.3 µM
  TGI: > 100 µM
COLO 205 colon
  GI50: 45.3 µM
  TGI: > 100 µM
DLD-1 colon
  GI50: 52.7 µM
  TGI: > 100 µM
DMS 114 small cell lung
  GI50: 26.1 µM
  TGI: > 100 µM
DMS 273 small cell lung
  GI50: 37.2 µM
  TGI: > 100 µM
EKVX NSCLC
  GI50: 60.7 µM
  TGI: > 100 µM
HCC-2998 colon
  GI50: > 100 µM
  TGI: > 100 µM
HCT-116 colon
  GI50: 80.4 µM
  TGI: > 100 µM
HCT-15 colon
  GI50: > 100 µM
  TGI: > 100 µM
HOP-18 NSCLC
  GI50: 7.08 µM
  TGI: 83 µM
IGROV1 ovarian
  GI50: 22.8 µM
  TGI: > 100 µM
KM12 colon
  GI50: > 100 µM
  TGI: > 100 µM
KM20L2 colon
  GI50: 72.8 µM
  TGI: > 100 µM
LOX IMVI melanoma
  GI50: > 100 µM
  TGI: > 100 µM
LXFL 529 NSCLC
  GI50: 83.9 µM
  TGI: > 100 µM
M14 melanoma
  GI50: 30.2 µM
  TGI: > 100 µM
M19-MEL melanoma
  GI50: 54.4 µM
  TGI: > 100 µM
MALME-3M melanoma
  GI50: 93.5 µM
  TGI: > 100 µM
NCI-H226 lung
  GI50: 21.9 µM
  TGI: > 100 µM
NCI-H23 lung
  GI50: 8.39 µM
  TGI: > 100 µM
NCI-H460 lung
  GI50: > 100 µM
  TGI: > 100 µM
NCI-H522 lung
  GI50: 30.3 µM
  TGI: > 100 µM
OVCAR-3 ovarian
  GI50: 17.4 µM
  TGI: > 100 µM
OVCAR-4 ovarian
  GI50: 56.5 µM
  TGI: > 100 µM
OVCAR-5 ovarian
  GI50: 3.31 µM
  TGI: > 100 µM
OVCAR-8 ovarian
  GI50: 76.7 µM
  TGI: > 100 µM
RPMI-8226 leukemia
  GI50: 18 µM
  TGI: > 100 µM
RXF 393 renal
  GI50: > 100 µM
  TGI: > 100 µM
RXF-631 renal
  GI50: 23.2 µM
  TGI: > 100 µM
SF-268 CNS
  GI50: 60.7 µM
  TGI: > 100 µM
SF-295 CNS
  GI50: > 100 µM
  TGI: > 100 µM
SF-539 CNS
  GI50: > 100 µM
  TGI: > 100 µM
SK-MEL-2 melanoma
  GI50: > 100 µM
  TGI: > 100 µM
SK-MEL-28 melanoma
  GI50: 55.8 µM
  TGI: > 100 µM
SK-MEL-5 melanoma
  GI50: 89.4 µM
  TGI: > 100 µM
SN12C renal
  GI50: > 100 µM
  TGI: > 100 µM
SNB-19 CNS
  GI50: > 100 µM
  TGI: > 100 µM
SNB-75 CNS
  GI50: > 100 µM
  TGI: > 100 µM
SR leukemia
  GI50: 6.3 µM
  TGI: > 100 µM
SW-620 colon
  GI50: 70.3 µM
  TGI: > 100 µM
TK-10 renal
  GI50: 44.5 µM
  TGI: > 100 µM
U251 CNS
  GI50: 58.2 µM
  TGI: > 100 µM
UACC-62 melanoma
  GI50: 12.1 µM
  TGI: > 100 µM
UO-31 renal
  GI50: 18.8 µM
  TGI: > 100 µM
XF 498 CNS
  GI50: > 100 µM
  TGI: > 100 µM
